Results reported in PubChem BioAssay (NCI).
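48-hour exposure; five concentrations; linearly interpolated endpoints. TGI: total growth inhibition.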

Key:
Assay in all cases: NCI tumour cell line growth inhibition, 48 h
OVCAR-3 ovarian = tested on: OVCAR-3 ovarian
UACC-257 melanoma = tested on: UACC-257 melanoma
NCI-H522 lung = tested on: NCI-H522 lung
HS 578T breast = tested on: HS 578T breast
MCF7 breast = tested on: MCF7 breast
HOP-62 NSCLC = tested on: HOP-62 NSCLC
TK-10 renal = tested on: TK-10 renal
OVCAR-5 ovarian = tested on: OVCAR-5 ovarian
OVCAR-4 ovarian = tested on: OVCAR-4 ovarian
SK-MEL-28 melanoma = tested on: SK-MEL-28 melanoma
SK-MEL-5 melanoma = tested on: SK-MEL-5 melanoma
HCT-15 colon = tested on: HCT-15 colon
HOP-92 NSCLC = tested on: HOP-92 NSCLC
UO-31 renal = tested on: UO-31 renal
SN12C renal = tested on: SN12C renal
LOX IMVI melanoma = tested on: LOX IMVI melanoma
A498 renal = tested on: A498 renal
RXF 393 renal = tested on: RXF 393 renal
COLO 205 colon = tested on: COLO 205 colon
MDA-N = tested on: MDA-N
A549 NSCLC = tested on: A549 NSCLC
NCI/ADR-RES ovarian = tested on: NCI/ADR-RES ovarian
SF-268 CNS = tested on: SF-268 CNS
T-47D breast = tested on: T-47D breast
MDA-MB-231 breast = tested on: MDA-MB-231 breast
NCI-H226 lung = tested on: NCI-H226 lung
K-562 leukemia = tested on: K-562 leukemia
SW-620 colon = tested on: SW-620 colon
SNB-75 CNS = tested on: SNB-75 CNS
U251 CNS = tested on: U251 CNS
SF-295 CNS = tested on: SF-295 CNS
ACHN renal = tested on: ACHN renal
MDA-MB-435 = tested on: MDA-MB-435
KM12 colon = tested on: KM12 colon
EKVX NSCLC = tested on: EKVX NSCLC
HCT-116 colon = tested on: HCT-116 colon
NCI-H460 lung = tested on: NCI-H460 lung
DU-145 prostate = tested on: DU-145 prostate
786-0 renal = tested on: 786-0 renal
SK-OV-3 ovarian = tested on: SK-OV-3 ovarian
MOLT-4 leukemia = tested on: MOLT-4 leukemia
CCRF-CEM leukemia = tested on: CCRF-CEM leukemia
IGROV1 ovarian = tested on: IGROV1 ovarian
NCI-H23 lung = tested on: NCI-H23 lung
M14 melanoma = tested on: M14 melanoma
HT29 colon = tested on: HT29 colon
RPMI-8226 leukemia = tested on: RPMI-8226 leukemia
HCC-2998 colon = tested on: HCC-2998 colon
BT-549 breast = tested on: BT-549 breast
SK-MEL-2 melanoma = tested on: SK-MEL-2 melanoma
MALME-3M melanoma = tested on: MALME-3M melanoma
OVCAR-8 ovarian = tested on: OVCAR-8 ovarian
SNB-19 CNS = tested on: SNB-19 CNS
CAKI-1 renal = tested on: CAKI-1 renal
PC-3 prostate = tested on: PC-3 prostate
SR leukemia = tested on: SR leukemia
UACC-62 melanoma = tested on: UACC-62 melanoma
SF-539 CNS = tested on: SF-539 CNS
HL-60(TB) leukemia = tested on: HL-60(TB) leukemia

`ClC(Cl)(Cl)C1=N[C@H]2[C@H](Br)[C@@H]3O[C@@H](c4ccccc4)[C@H](c4ccccc4)O[C@@H]3[C@H]2O1` showed a TGI (OVCAR-3 ovarian) of 31.9 µM, a TGI (UACC-257 melanoma) of 37.3 µM and a TGI (NCI-H522 lung) of 26.7 µM. It also gave a TGI (HS 578T breast) of 63.7 µM, a TGI (MCF7 breast) of 32.6 µM and a TGI (HOP-62 NSCLC) of 41.3 µM. It also gave a TGI (TK-10 renal) of 37.5 µM, a TGI (OVCAR-5 ovarian) of 37.5 µM and a TGI (OVCAR-4 ovarian) of 43.8 µM. It also gave a TGI (SK-MEL-28 melanoma) of 37.1 µM, a TGI (SK-MEL-5 melanoma) of 31.2 µM and a TGI (HCT-15 colon) of 67.3 µM. It also gave a TGI (HOP-92 NSCLC) of 31.5 µM, a TGI (UO-31 renal) of 38.5 µM and a TGI (SN12C renal) of 37.2 µM. The TGI (LOX IMVI melanoma) was 33.3 µM, the TGI (A498 renal) was 31.3 µM and the TGI (RXF 393 renal) was 45.4 µM. It also gave a TGI (COLO 205 colon) of 30 µM, a TGI (MDA-N) of 38 µM and a TGI (A549 NSCLC) of 49.2 µM. For the same molecule, the TGI (NCI/ADR-RES ovarian) was 65.2 µM, the TGI (SF-268 CNS) was 37.2 µM and the TGI (T-47D breast) was over 100 µM. For the same molecule, the TGI (MDA-MB-231 breast) was 50.1 µM, the TGI (NCI-H226 lung) was 35.5 µM and the TGI (K-562 leukemia) was 54 µM. For the same molecule, the TGI (SW-620 colon) was 44.8 µM, the TGI (SNB-75 CNS) was 44 µM and the TGI (U251 CNS) was 31.2 µM. It also gave a TGI (SF-295 CNS) of 34.3 µM, a TGI (ACHN renal) of 31.3 µM and a TGI (MDA-MB-435) of 42.4 µM. The TGI (KM12 colon) was 45.6 µM, the TGI (EKVX NSCLC) was 50.3 µM and the TGI (HCT-116 colon) was 39 µM. The TGI (NCI-H460 lung) was 30 µM, the TGI (DU-145 prostate) was 73.7 µM and the TGI (786-0 renal) was 39.6 µM. It also gave a TGI (SK-OV-3 ovarian) of 40.5 µM, a TGI (MOLT-4 leukemia) of 45.7 µM and a TGI (CCRF-CEM leukemia) of 47.2 µM. For the same molecule, the TGI (IGROV1 ovarian) was 30.9 µM, the TGI (NCI-H23 lung) was 42.3 µM and the TGI (M14 melanoma) was 50.3 µM. For the same molecule, the TGI (HT29 colon) was 58.1 µM, the TGI (RPMI-8226 leukemia) was 41 µM and the TGI (HCC-2998 colon) was 28.5 µM. It also gave a TGI (BT-549 breast) of 53 µM, a TGI (SK-MEL-2 melanoma) of 31.3 µM and a TGI (MALME-3M melanoma) of 36.2 µM. The TGI (OVCAR-8 ovarian) was 33.3 µM, the TGI (SNB-19 CNS) was 63.9 µM and the TGI (CAKI-1 renal) was 32.6 µM. For the same molecule, the TGI (PC-3 prostate) was 30.4 µM, the TGI (SR leukemia) was 52.2 µM and the TGI (UACC-62 melanoma) was 31.5 µM.
`Cc1ccc(N=Nc2c(O)ccc3cc(S(=O)(=O)O)ccc23)c(C)c1` gave a TGI (OVCAR-3 ovarian) of over 100 µM, a TGI (UACC-257 melanoma) of over 100 µM and a TGI (NCI-H522 lung) of over 100 µM. It also gave a TGI (HS 578T breast) of over 100 µM, a TGI (MCF7 breast) of over 100 µM and a TGI (HOP-62 NSCLC) of over 100 µM. It also gave a TGI (TK-10 renal) of over 100 µM, a TGI (OVCAR-5 ovarian) of over 100 µM and a TGI (OVCAR-4 ovarian) of over 100 µM. For the same molecule, the TGI (SK-MEL-28 melanoma) was over 100 µM, the TGI (SK-MEL-5 melanoma) was over 100 µM and the TGI (HCT-15 colon) was over 100 µM. It also gave a TGI (HOP-92 NSCLC) of over 100 µM, a TGI (UO-31 renal) of over 100 µM and a TGI (SN12C renal) of over 100 µM. It also gave a TGI (SF-539 CNS) of over 100 µM, a TGI (A498 renal) of over 100 µM and a TGI (RXF 393 renal) of over 100 µM. It also gave a TGI (COLO 205 colon) of over 100 µM, a TGI (MDA-N) of over 100 µM and a TGI (A549 NSCLC) of over 100 µM. It also gave a TGI (NCI/ADR-RES ovarian) of over 100 µM, a TGI (SF-268 CNS) of over 100 µM and a TGI (T-47D breast) of over 100 µM. For the same molecule, the TGI (MDA-MB-231 breast) was over 100 µM, the TGI (NCI-H226 lung) was over 100 µM and the TGI (K-562 leukemia) was over 100 µM. The TGI (SW-620 colon) was over 100 µM, the TGI (SNB-75 CNS) was over 100 µM and the TGI (U251 CNS) was over 100 µM. For the same molecule, the TGI (SF-295 CNS) was over 100 µM, the TGI (ACHN renal) was over 100 µM and the TGI (MDA-MB-435) was over 100 µM. For the same molecule, the TGI (KM12 colon) was over 100 µM, the TGI (EKVX NSCLC) was over 100 µM and the TGI (HCT-116 colon) was over 100 µM. For the same molecule, the TGI (NCI-H460 lung) was over 100 µM, the TGI (DU-145 prostate) was over 100 µM and the TGI (786-0 renal) was over 100 µM. It also gave a TGI (SK-OV-3 ovarian) of over 100 µM, a TGI (MOLT-4 leukemia) of over 100 µM and a TGI (CCRF-CEM leukemia) of over 100 µM. It also gave a TGI (IGROV1 ovarian) of over 100 µM, a TGI (NCI-H23 lung) of over 100 µM and a TGI (M14 melanoma) of over 100 µM. It also gave a TGI (HT29 colon) of over 100 µM, a TGI (HCC-2998 colon) of over 100 µM and a TGI (BT-549 breast) of over 100 µM. It also gave a TGI (SK-MEL-2 melanoma) of over 100 µM, a TGI (MALME-3M melanoma) of over 100 µM and a TGI (OVCAR-8 ovarian) of over 100 µM. The TGI (SNB-19 CNS) was over 100 µM, the TGI (CAKI-1 renal) was over 100 µM and the TGI (PC-3 prostate) was over 100 µM. The TGI (SR leukemia) was over 100 µM, the TGI (UACC-62 melanoma) was over 100 µM and the TGI (HL-60(TB) leukemia) was over 100 µM.
With `CCOC(=O)/C(=C\c1ccc(N(C)C)cc1)S(=O)(=O)C(F)(F)C(F)(F)C(F)(F)C(F)(F)F` the TGI (OVCAR-3 ovarian) was over 100 µM, the TGI (UACC-257 melanoma) was over 100 µM and the TGI (NCI-H522 lung) was over 100 µM. The TGI (HS 578T breast) was over 100 µM, the TGI (MCF7 breast) was over 100 µM and the TGI (HOP-62 NSCLC) was over 100 µM. The TGI (TK-10 renal) was over 100 µM, the TGI (OVCAR-5 ovarian) was over 100 µM and the TGI (OVCAR-4 ovarian) was over 100 µM. For the same molecule, the TGI (SK-MEL-28 melanoma) was over 100 µM, the TGI (SK-MEL-5 melanoma) was over 100 µM and the TGI (HCT-15 colon) was over 100 µM. The TGI (HOP-92 NSCLC) was over 100 µM, the TGI (UO-31 renal) was over 100 µM and the TGI (SN12C renal) was over 100 µM. It also gave a TGI (SF-539 CNS) of over 100 µM, a TGI (LOX IMVI melanoma) of over 100 µM and a TGI (A498 renal) of over 100 µM. The TGI (COLO 205 colon) was over 100 µM, the TGI (MDA-N) was over 100 µM and the TGI (A549 NSCLC) was over 100 µM. It also gave a TGI (NCI/ADR-RES ovarian) of over 100 µM, a TGI (SF-268 CNS) of over 100 µM and a TGI (T-47D breast) of over 100 µM. The TGI (MDA-MB-231 breast) was over 100 µM, the TGI (NCI-H226 lung) was over 100 µM and the TGI (K-562 leukemia) was over 100 µM. The TGI (SW-620 colon) was over 100 µM, the TGI (SNB-75 CNS) was over 100 µM and the TGI (U251 CNS) was over 100 µM. It also gave a TGI (SF-295 CNS) of over 100 µM, a TGI (ACHN renal) of over 100 µM and a TGI (MDA-MB-435) of over 100 µM. For the same molecule, the TGI (KM12 colon) was over 100 µM, the TGI (EKVX NSCLC) was over 100 µM and the TGI (HCT-116 colon) was over 100 µM. For the same molecule, the TGI (NCI-H460 lung) was over 100 µM, the TGI (DU-145 prostate) was over 100 µM and the TGI (786-0 renal) was over 100 µM. For the same molecule, the TGI (SK-OV-3 ovarian) was over 100 µM, the TGI (MOLT-4 leukemia) was over 100 µM and the TGI (CCRF-CEM leukemia) was over 100 µM. The TGI (IGROV1 ovarian) was over 100 µM, the TGI (NCI-H23 lung) was over 100 µM and the TGI (M14 melanoma) was over 100 µM. The TGI (HT29 colon) was over 100 µM, the TGI (RPMI-8226 leukemia) was over 100 µM and the TGI (HCC-2998 colon) was over 100 µM. The TGI (BT-549 breast) was over 100 µM, the TGI (SK-MEL-2 melanoma) was over 100 µM and the TGI (MALME-3M melanoma) was over 100 µM. It also gave a TGI (OVCAR-8 ovarian) of over 100 µM, a TGI (SNB-19 CNS) of over 100 µM and a TGI (CAKI-1 renal) of over 100 µM. For the same molecule, the TGI (PC-3 prostate) was over 100 µM, the TGI (SR leukemia) was over 100 µM and the TGI (UACC-62 melanoma) was over 100 µM. The TGI (HL-60(TB) leukemia) was over 100 µM.
